Assay results taken from patent US9120785B2, “Pyridyl aminopyridines as Syk inhibitors” (Merck Sharp & Dohme Corp., priority 2011, dated 2015).
Read-outs that look alike come from different tables or passages of the source.

Target: recombinant human GST-Syk (Homo sapiens (Human), UniProt P43405)
Experiment: Homogeneous Time-Resolved Fluorescence (HTRF) assay for the recombinant human Syk enzyme
Assay type: biochemical
Details: recombinant human GST-Syk 5 pM, ATP 25 μM
Method: Homogeneous Time-Resolved Fluorescence (HTRF) Assay for the Recombinant Human Syk Enzyme:
A recombinant GST-hSyk fusion protein was used to measure potency of compounds to inhibit human Syk activity. The recombinant human GST-Syk ([…] #08-176) (5 pM final concentration) was incubated with various concentrations of the inhibitor diluted in DMSO (0.1% final concentration) for 10 minutes at room temperature in 15 mM Tris-HCl (pH 7.5), 0.01% tween 20, 2 mM DTT in 384 well plate format. To initiate the reaction the biotinylated substrate peptide (250 nM final concentration) that contains the phosphorylation site for Syk was added with magnesium (5 mM final concentration) and ATP (25 μM final concentration). Final volume of the reaction was 10 μL. Phosphorylation of the peptide was allowed to proceed for 45 minutes at room temperature. To quench the reaction and detect the phosphorylated product, 2 nM of a Europium-anti-phosphotyrosine antibody (Perkin Elmer #AD0161) and 70 nM SA-APC (Perkin-Elmer #CR130-100) were added together in 15 mM Tris pH 7.5, 40 mM EDTA, 0.01% tween 20. Final volume of the quenching solution was 10 μL. The resulting HTRF signal was measured after 30 minutes on an EnVision (Perkin-Elmer) reader using a time-resolved fluorescence protocol.

[1] = class symbols, read-out: rhSyk activity (IC50)
[2] = 10-dose titration, read-out: rhSyk (nM) IC50

IC50 [1] [nM]	Compound	IC50 [2] [nM]
≤ 100	Cc1cc(Nc2cc(C(F)(F)F)ccn2)nc(-c2cnc(C(C)(O)C3CCC(C(=O)O)C(C)C3)s2)c1 (single isomer, unassigned) [Example 15-1, 4-{1-hydroxy-1-[5-(4-methyl-6-{[4-(trifluoromethyl)pyridin-2-yl]amino}pyridin-2-yl)-1,3-thiazol-2-yl]ethyl}-2-methylcyclohexanecarboxylic acid]	–
≤ 100	COc1ccnc(Nc2cccc(-c3cnc(C(C)(O)[C@H]4CC[C@H](C(=O)O)CC4)s3)n2)c1 (relative stereo) [Example 14-41, trans-4-[1-hydroxy-1-(5-{6-[(4-methoxypyridin-2-yl)amino]pyridin-2-yl}-1,3-thiazol-2-yl)ethyl]cyclohexanecarboxylic acid]	–
≤ 100	Cc1cc(Nc2cc(C(F)(F)F)ccn2)nc(-c2cnc(C(C)(O)C3CCC(C(=O)O)C(C)C3)s2)c1 (single isomer, unassigned) [Example 15-4, 4-{1-hydroxy-1-[5-(4-methyl-6-{[4-(trifluoromethyl)pyridin-2-yl]amino}pyridin-2-yl)-1,3-thiazol-2-yl]ethyl}-2-methylcyclohexanecarboxylic acid]	–
≤ 100	CC(O)(c1ncc(-c2cccc(Nc3cc(C(F)F)ccn3)n2)s1)[C@H]1CC[C@H](C(=O)O)CC1 (relative stereo) [Example 14-42, trans-4-{1-[5-(6-{[4-(difluoromethyl)pyridin-2-yl]amino}pyridin-2-yl)-1,3-thiazol-2-yl]-1-hydroxyethyl}cyclohexanecarboxylic acid]	–
100 to 1000	CCCCOC(=O)[C@H]1CC[C@H]([C@@](C)(O)c2ncc(-c3cc(C)cc(Nc4cc(C)c(F)cn4)n3)s2)CC1 (single isomer, unassigned) [Example 9, Enantiomer 1, butyl trans-4-[1-(5-{6-[(5-fluoro-4-methylpyridine-2-yl)amino]-4-methylpyridine-2-yl}-1,3-thiazol-2-yl)-1-hydroxyethyl]cyclohexanecarboxylate]	278
≤ 100	COc1ccnc(Nc2cc(C)cc(-c3cnc(C(C)(O)[C@H]4CC[C@H](C(=O)O)CC4)s3)n2)c1 (relative stereo) [Example 14-3, trans-4-[1-hydroxy-1-(5-{6-[(4-methoxypyridin-2-yl)amino]-4-methylpyridin-2-yl}-1,3-thiazol-2-yl)ethyl]cyclohexanecarboxylic acid]	–
≤ 100	Cc1cc(Nc2cc(C(F)F)ccn2)nc(-c2cnc(C(C)(O)[C@H]3CC[C@H](C(=O)O)C(C)(C)C3)s2)c1 (stereo partly drawn) [Example 14-37, (1S,4S)-4-{1-[5-(6-{[4-(difluoromethyl)pyridin-2-yl]amino}-4-methylpyridin-2-yl)-1,3-thiazol-2-yl]-1-hydroxyethyl}-2,2-dimethylcyclohexanecarboxylic acid]	–
≤ 100	COc1ccnc(Nc2cc(C)cc(-c3cnc(C(C)(O)[C@H]4CC[C@H](C(=O)O)C(C)(C)C4)s3)n2)c1 (stereo partly drawn) [Example 14-36, (1S,4S)-4-[1-hydroxy-1-(5-{6-[(4-methoxypyridin-2-yl)amino]-4-methylpyridin-2-yl}-1,3-thiazol-2-yl)ethyl]-2,2-dimethylcyclohexanecarboxylic acid]	–
≤ 100	CCC(O)(c1ncc(-c2cc(C)cc(Nc3cc(OC(C)C)ccn3)n2)s1)[C@H]1CC[C@H](C(=O)O)CC1 (single isomer, unassigned) [Example 14-22, trans-4-{1-hydroxy-1-[5-(4-methyl-6-{[4-(propan-2-yloxy)pyridin-2-yl]amino}pyridin-2-yl)-1,3-thiazol-2-yl]propyl}cyclohexanecarboxylic acid]	–
≤ 100	CC(O)(c1ncc(-c2cc(C(F)F)cc(Nc3cc(C(F)(F)F)ccn3)n2)s1)[C@H]1CC[C@H](C(=O)O)CC1 (single isomer, unassigned) [Example 14-53, trans-4-{1-[5-(4-(difluoromethyl)-6-{[4-(trifluoromethyl)pyridin-2-yl]amino}pyridin-2-yl]-1,3-thiazol-2-yl}-1-hydroxyethyl)cyclohexanecarboxylic acid]	–
≤ 100	Cc1cc(Nc2cc(OC(C)C)ccn2)nc(-c2cnc(C(O)(C3CC3)[C@H]3CC[C@H](C(=O)O)CC3)s2)c1 (single isomer, unassigned) [Example 14-24, trans-4-{cyclopropyl(hydroxy)[5-(4-methyl-6-{[4-(propan-2-yloxy)pyridin-2-yl]amino}pyridin-2-yl)-1,3-thiazol-2-yl]methyl}cyclohexanecarboxylic acid]	–
≤ 100	CCC(O)(c1ncc(-c2cc(C)cc(Nc3cc(C4CC4)ccn3)n2)s1)[C@H]1CC[C@H](C(N)=O)CC1 (single isomer, unassigned) [Example 2, Enantiomer 1, trans-4-[1-(5-{6-[(4-cyclopropylpyridin-2-yl)amino]-4-methylpyridin-2-yl}-1,3-thiazol-2-yl)-1-hydroxypropyl]cyclohexanecarboxamide]	–
≤ 100	CCC(O)(c1ncc(-c2cc(C)cc(Nc3cc(OC(C)C)ccn3)n2)s1)[C@H]1CC[C@H](C(=O)O)CC1 (single isomer, unassigned) [Example 14-21, trans-4-{1-hydroxy-1-[5-(4-methyl-6-{[4-(propan-2-yloxy)pyridin-2-yl]amino}pyridin-2-yl)-1,3-thiazol-2-yl]propyl}cyclohexanecarboxylic acid]	–
≤ 100	Cc1ccnc(Nc2cccc(-c3cnc(C(C)(O)[C@H]4CC[C@H](C(=O)O)C(C)(C)C4)s3)n2)c1 (stereo partly drawn) [Example 14-46, (1S,4S)-4-[1-hydroxy-1-(5-{6-[(4-methylpyridin-2-yl)amino]pyridin-2-yl}-1,3-thiazol-2-yl)ethyl]-2,2-dimethylcyclohexanecarboxylic acid]	–
≤ 100	Cc1cc(Nc2cc(C(F)(F)F)ccn2)nc(-c2cnc(C(C)(O)C3CCC(C(=O)O)C(C)C3)s2)c1 (single isomer, unassigned) [Example 15-6, 4-{1-hydroxy-1-[5-(4-methyl-6-{[4-(trifluoromethyl)pyridin-2-yl]amino}pyridin-2-yl)-1,3-thiazol-2-yl]ethyl}-2-methylcyclohexanecarboxylic acid]	–
≤ 100	Cc1ccnc(Nc2cccc(-c3cnc(C(C)(O)[C@H]4CC[C@H](C(=O)O)CC4)s3)n2)c1 (single isomer, unassigned) [Example 14-39, trans-4-[1-hydroxy-1-(5-{6-[(4-methylpyridin-2-yl)amino]pyridin-2-yl}-1,3-thiazol-2-yl)ethyl]cyclohexanecarboxylic acid]	–
≤ 100	Cc1cc(Nc2cc(C(F)(F)F)ccn2)nc(-c2cnc(C(O)([C@H]3CC[C@H](C(=O)O)CC3)C(F)(F)F)s2)c1 (single isomer, unassigned) [Example 14-20, trans-4-{2,2,2-trifluoro-1-hydroxy-1-[5-(4-methyl-6-{[4-(trifluoromethyl)pyridin-2-yl]amino}pyridin-2-yl)-1,3-thiazol-2-yl]ethyl}cyclohexanecarboxylic acid]	–
≤ 100	Cc1cc(Nc2cc(C(F)(F)F)ccn2)nc(-c2cnc(C(C)(O)C3CCC(C(=O)O)C(C)C3)s2)c1 (single isomer, unassigned) [Example 15-8, 4-{1-hydroxy-1-[5-(4-methyl-6-{[4-(trifluoromethyl)pyridin-2-yl]amino}pyridin-2-yl)-1,3-thiazol-2-yl]ethyl}-2-methylcyclohexanecarboxylic acid]	–
≤ 100	Cc1cc(Nc2cc(C(F)(F)F)ccn2)nc(-c2cnc(C(O)(C3CC3)[C@H]3CC[C@H](C(=O)O)CC3)s2)c1 (single isomer, unassigned) [Example 14-18, trans-4-{cyclopropyl(hydroxy)[5-(4-methyl-6-{[4-(trifluoromethyl)pyridin-2-yl]amino}pyridin-2-yl)-1,3-thiazol-2-yl]methyl}cyclohexanecarboxylic acid]	–
≤ 100	Cc1cc(Nc2cc(C(F)(F)F)ccn2)nc(-c2cnc(C(C)(O)C3CCC(C(=O)O)C(C)C3)s2)c1 (single isomer, unassigned) [Example 15-2, 4-{1-hydroxy-1-[5-(4-methyl-6-{[4-(trifluoromethyl)pyridin-2-yl]amino}pyridin-2-yl)-1,3-thiazol-2-yl]ethyl}-2-methylcyclohexanecarboxylic acid]	–
≤ 100	Cc1cc(Nc2cc(C(F)(F)F)ccn2)nc(-c2cnc(C(C)(O)C3CCC(C(=O)O)C(C)C3)s2)c1 (single isomer, unassigned) [Example 15-5, 4-{1-hydroxy-1-[5-(4-methyl-6-{[4-(trifluoromethyl)pyridin-2-yl]amino}pyridin-2-yl)-1,3-thiazol-2-yl]ethyl}-2-methylcyclohexanecarboxylic acid]	–
≤ 100	Cc1cc(Nc2cc(C(C)C)ccn2)nc(-c2cnc(C(C)(O)[C@H]3CC[C@H](C(=O)O)CC3)s2)c1 (relative stereo) [Example 14-8, trans-4-{1-hydroxy-1-[5-(4-methyl-6-{[4-(propan-2-yl)pyridin-2-yl]amino}pyridin-2-yl)-1,3-thiazol-2-yl]ethyl}cyclohexanecarboxylic acid]	–

Compound	IC50 [1] [nM]	IC50 [2] [nM]
butyl trans-4-[1-hydroxy-1-(5-{6-[(4-methoxypyridin-2-yl)amino]-4-methylpyridin-2-yl}-1,3-thiazol-2-yl)ethyl]cyclohexanecarboxylate [Example 14-2]	100 to 1000	219
